Test results published in US12564193B2, “Isoxazoline-substituted benzamide derivative, and preparation method therefor and use thereof” (SHANDONG UNITED PESTICIDE INDUSTRY CO., LTD., priority 2020, dated 2026).

Experiments:
Type in all cases: in vivo
[1] = test system: Frankliniella occidentalis; assay: Insecticidal activity, spray on pre-infested radish plants: Frankliniella occidentalis; details: for Fatality rate on Frankliniella occidentalis (%): Table 3
Description: (§1) For determination of insecticidal activity, the test method was as follows: a test solution with a desired concentration was prepared by dissolving a test compound sample in a suitable solvent (the kind of solvent was such as acetone, methanol, DMSO, etc., and was selected according to its dissolving ability for the sample). The test cell was composed of a small open container with 12-15 day old radish plants inside. The plants were pre-infested by placing 30-40 pests located on one leaf cut from the cultivated plant on one leaf of the test plant (leaf cutting method). As the leaves dehydrated, the pests moved on the test plants. After the pre-infesting, the soil of the test cells was covered with a layer of sand.
The test method was as follows: the test was repeated for three times, and after spraying the formulated test compound, each test unit was allowed to dry for 1 hour, and then a black mesh cover was placed at the top. The test units were kept in a growth chamber at 25° C. and 70% relative humidity for 6 days. The mortality (fatality rate) of the insects was then visually assessed for each test unit, and the fatality rate was calculated as follows:
[formula] (1) Test Results for the Control of Frankliniella occidentalis by Exemplary Example Compounds

Plutella xylostella = assay: Insecticidal activity, spray on pre-infested radish plants: Plutella xylostella; details: for Fatality rate on Plutella xylostella (%): Table 3
Description: as §1
(§2) The test method was as follows: the test was repeated for three times, and after spraying the formulated test compound, each test unit was allowed to dry for 1 hour, and then a black mesh cover was placed at the top. The test units were kept in a growth chamber at 25° C. and 70% relative humidity for 6 days. The mortality (fatality rate) of the insects was then visually assessed for each test unit, and the fatality rate was calculated as follows: […]

Mythimna separata = assay: Insecticidal activity, spray on pre-infested radish plants: Mythimna separata; details: for Fatality rate on Mythimna separata (%): Table 3
Description: as §1, §2

Chilo suppressalis = assay: Insecticidal activity, spray on pre-infested radish plants: Chilo suppressalis; details: for Fatality rate on Chilo suppressalis (%): Table 3
Description: as §1, §2

Pieris rapae = assay: Insecticidal activity, spray on pre-infested radish plants: Pieris rapae; details: 144 h, read-out: fatality rate on Pieris rapae
Description: as §1, §2

Spodoptera litura = assay: Insecticidal activity, spray on pre-infested radish plants: Spodoptera litura; details: 144 h, read-out: fatality rate on Spodoptera litura
Description: as §1, §2

Cnaphalocrocis medinalis = assay: Insecticidal activity, spray on pre-infested radish plants: Cnaphalocrocis medinalis; details: 144 h, read-out: fatality rate on Cnaphalocrocis medinalis
Description: as §1, §2

Tetranychus cinnabarinus = assay: Acaricidal activity, slide immersion of female adult mites: Tetranychus cinnabarinus; details: 24 h, read-out: fatality rate on Tetranychus cinnabarinus
Description: The test method was as follows: a test solution with a desired concentration was prepared by dissolving a test compound sample in a suitable solvent (the kind of solvent was such as acetone, methanol, DMSO, etc., and was selected according to its dissolving ability for the sample). A double-sided adhesive tape was cut into 2-3 cm long pieces, the pieces were attached to one end of a microscope slide, paper pieces on the adhesive tape were removed using tweezers, female adult mites which were consistent in size, bright in body color and lively in action were selected using a zero-size brush pen, the backs of the female adult mites were adhered to the double-sided adhesive tape (note: the adhesion should not cover mite feet, mite whiskers and mouthparts), with 4 rows of mites adhered to each piece and 10 heads of the mites adhered to each row.
One end of the glass slide with the mites was immersed into a drug liquid, with slightly shaking for 5 seconds, and then the slide was taken out. The excess drug liquid around the mite body and is surroundings is quickly sucked off using absorbent paper. The slide was placed in the biochemical incubator described above, and the results were checked by using binoculars after 24 hours. The mites were slightly touched by using a brush pen, the mites with immobility in feet were considered to be dead, and the fatality rate was calculated. The fatality rate was calculated as follows: […]

[2] = Frankliniella occidentalis, 144 h, read-out: fatality rate on Frankliniella occidentalis
[3] = Plutella xylostella, 144 h, read-out: fatality rate on Plutella xylostella
[4] = Mythimna separata, 144 h, read-out: fatality rate on Mythimna separata
[5] = Chilo suppressalis, 144 h, read-out: fatality rate on Chilo suppressalis

Cc1cc(C2=NOC(c3cc(Cl)cc(Cl)c3)(C(F)(F)F)C2)ccc1C(=O)NCc1ccc(Cl)nc1 (stereo not drawn) [CK1, reference compound]
Fatality rate on Frankliniella occidentalis (%) ([1]; 1 ppm): 0%
Fatality rate on Frankliniella occidentalis (%) ([1]; 10 ppm): 40%
Fatality rate on Frankliniella occidentalis (%) ([1]; 25 ppm): 80%
Fatality rate on Plutella xylostella (%) (Plutella xylostella; 0.1 ppm): 15%
Fatality rate on Plutella xylostella (%) (Plutella xylostella; 1 ppm): 80%
Fatality rate on Plutella xylostella (%) (Plutella xylostella; 10 ppm): 100%
Fatality rate on Mythimna separata (%) (Mythimna separata; 0.1 ppm): 10%
Fatality rate on Mythimna separata (%) (Mythimna separata; 1 ppm): 80%
Fatality rate on Mythimna separata (%) (Mythimna separata; 10 ppm): 100%
Fatality rate on Chilo suppressalis (%) (Chilo suppressalis; 0.1 ppm): 0%
Fatality rate on Chilo suppressalis (%) (Chilo suppressalis; 1 ppm): 50%
Fatality rate on Chilo suppressalis (%) (Chilo suppressalis; 10 ppm): 100%

Cc1cc(C2=NOC(c3cc(Cl)c(F)c(Cl)c3)(C(F)(F)F)C2)ccc1C(=O)NCc1ccc(Cl)nc1 (stereo not drawn) [Compound 1, N-((6-chloropyridin-3-yl)methyl)-4-(5-(3,5-dichloro-4-fluorophenyl)-5-(trifluoromethyl)-4,5-dihydroisoxazol-3-yl)-2-methylbenzamide]
Fatality rate on Frankliniella occidentalis (%) ([1]; 1 ppm): 95%
Fatality rate on Frankliniella occidentalis (%) ([1]; 10 ppm): 100%
Fatality rate on Frankliniella occidentalis (%) ([1]; 25 ppm): 100%
pest or weed control at 1 ppm [1, 2]: > 80%
pest or weed control at 10 ppm [1, 2]: > 80%
pest or weed control at 25 ppm [1, 2]: > 80%
Fatality rate on Plutella xylostella (%) (Plutella xylostella; 0.1 ppm): 100%
Fatality rate on Plutella xylostella (%) (Plutella xylostella; 1 ppm): 100%
Fatality rate on Plutella xylostella (%) (Plutella xylostella; 10 ppm): 100%
pest or weed control at 0.1 ppm (Plutella xylostella; [3]): > 80%
pest or weed control at 1 ppm (Plutella xylostella; [3]): > 80%
pest or weed control at 10 ppm (Plutella xylostella; [3]): > 80%
pest or weed control at 0.1 ppm (Pieris rapae): > 80%
pest or weed control at 1 ppm (Pieris rapae): > 80%
pest or weed control at 10 ppm (Pieris rapae): > 80%
Fatality rate on Mythimna separata (%) (Mythimna separata; 0.1 ppm): 95%
Fatality rate on Mythimna separata (%) (Mythimna separata; 1 ppm): 100%
Fatality rate on Mythimna separata (%) (Mythimna separata; 10 ppm): 100%
pest or weed control at 0.1 ppm (Mythimna separata; [4]): > 80%
pest or weed control at 1 ppm (Mythimna separata; [4]): > 80%
pest or weed control at 10 ppm (Mythimna separata; [4]): > 80%
pest or weed control at 0.1 ppm (Spodoptera litura): > 80%
pest or weed control at 1 ppm (Spodoptera litura): > 80%
pest or weed control at 10 ppm (Spodoptera litura): > 80%
Fatality rate on Chilo suppressalis (%) (Chilo suppressalis; 0.1 ppm): 90%
Fatality rate on Chilo suppressalis (%) (Chilo suppressalis; 1 ppm): 100%
Fatality rate on Chilo suppressalis (%) (Chilo suppressalis; 10 ppm): 100%
pest or weed control at 0.1 ppm (Chilo suppressalis; [5]): > 80%
pest or weed control at 1 ppm (Chilo suppressalis; [5]): > 80%
pest or weed control at 10 ppm (Chilo suppressalis; [5]): > 80%
pest or weed control at 0.1 ppm (Cnaphalocrocis medinalis): > 80%
pest or weed control at 1 ppm (Cnaphalocrocis medinalis): > 80%
pest or weed control at 10 ppm (Cnaphalocrocis medinalis): > 80%
pest or weed control at 1 ppm (Tetranychus cinnabarinus): > 80%
pest or weed control at 10 ppm (Tetranychus cinnabarinus): > 80%
pest or weed control at 25 ppm (Tetranychus cinnabarinus): > 80%
